In PubChem BioAssay (NCI) one finds TGI and GI50 data, which are given here for 23 compounds.

Where “and” joins values, the source holds several entries; their conditions need not be identical. Equal values may be shown once.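 Values below derive from 48-hour exposures of cells grown in 96-well plates, with endpoints linearly interpolated between the two concentrations bracketing the appropriate inhibition level. GI50: concentration for 50% inhibition of growth. TGI denotes the concentration required for complete inhibition of growth.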 Some results are limits rather than exact numbers.

The subject of the first experiment is K-562 leukemia. As to the kind of experiment: NCI anticancer screen, dose series, 48 h.
The compound `NC(=O)NNC(=O)c1nc[nH]c1[N+](=O)[O-]` gave a TGI greater than 100 µM.
For the compound `O=c1[nH]/c(=C/c2ccc(OCc3ccccc3)cn2)c(=O)[nH]/c1=C/c1ccc(O)cc1`, the TGI was greater than 100 µM.
The same measure, in the same setting: the figure for `N#C/C(=C\n1ccc(=O)[nH]c1=S)C(N)=O` is greater than 100 µM.
The same measure, in the same setting: the figure for `Cc1ccc(/C(O)=C/C(=O)C(=O)/C=C(\O)c2ccc(C)cc2C)c(C)c1` is 9.58 µM.
For the compound `Cc1ccc([C@H]2CC(=O)C[C@H](c3ccc(C)cc3)C23C(=O)c2ccccc2C3=O)cc1`, the TGI was greater than 100 µM.
`O=c1c2ncn(COCCCl)c2n(-c2ccccc2)c(=S)n1-c1ccccc1`: the TGI was greater than 100 µM.
In turn, `O=C(O)c1ccc(S(=O)(=O)c2ccccc2[N+](=O)[O-])cc1` showed a TGI greater than 10 µM.
`COc1ccc(/C=N/N=C(\N)NO)c(O)c1` showed a TGI greater than 10 µM.
The compound `COC(=O)C1=CC(=O)OC1(OO)c1ccccc1` (stereo not given) yielded a TGI greater than 100 µM.
The compound `O=C1NC(N/N=C/C(O)C(O)C(O)CO)=N/C1=C\c1ccco1` (stereo not given) had a TGI greater than 100 µM.
For the compound `COc1cc(CNc2ccc(SC)cc2)cc(OC)c1OC`, the GI50 was 3.99 µM and 1.49 µM; the TGI was 44.9 µM and > 63.6 µM.
`CN(NC(=O)c1cccs1)C1=NCCCN1` had a TGI greater than 100 µM.
Turning to `CCCCCC(=O)NC(=S)Nc1nn[nH]n1`, the TGI was greater than 100 µM.
Compound `CC1=NN(c2ccc(S(=O)(=O)O)cc2)C2(C1)SCC(=O)N2c1nc2ccccc2s1` (stereo not given) gave a TGI greater than 100 µM.
Turning to `C[C@H](N)C(=O)Nc1ccc(-c2nc3ccccc3s2)cc1`, the TGI is 37.6 µM.
`CC(=O)O[C@H]1C#C/C=C\C#CC[C@@H]2C(=O)N[C@@H]12` had a TGI greater than 100 µM.
Same read-out and setting: the figure for `Cc1ccc2c(c1)[nH]c1cc(C(F)(F)F)ccc1[p+]2=O` (stereo not given) is 66.4 µM.
The compound `CN(O)C(=O)c1cccc(Cl)c1` returned a TGI greater than 100 µM.
Still for that read-out and setting: the figure for `CCOP(=O)(OCC)c1c(C(=O)OC)cc(=O)[nH]c1-c1ccc(C)cc1` is greater than 78.4 µM; for `COC(=O)C1=C(C(=O)OC)SC2(S1)C1=C(CCCC1)SC(C(=O)OC)=C2C(=O)OC` it is 21.5 µM; for `C1CCC2C(C1)CCCC2NC1=NCCO1` (stereo not given) it is greater than 100 µM.
Same read-out and setting: the result for `CCC1(C)N=C(c2cnccn2)NN1c1ccc(Cl)cc1` (stereo not given) reads greater than 100 µM; that for `C/C=C/C(O)P1(=O)N(Cc2ccccc2)[C@@H]2CCCC[C@H]2N1Cc1ccccc1` (stereo not given in full), greater than 25 µM.

For another experiment, the system named is LOX IMVI melanoma. As to the kind of experiment: NCI anticancer screen, dose series, 48 h.
`NC(=O)NNC(=O)c1nc[nH]c1[N+](=O)[O-]` came in with a TGI greater than 100 µM.
Take `O=c1[nH]/c(=C/c2ccc(OCc3ccccc3)cn2)c(=O)[nH]/c1=C/c1ccc(O)cc1`: the TGI came to 1.26 µM.
In turn, `N#C/C(=C\n1ccc(=O)[nH]c1=S)C(N)=O` gave a TGI greater than 100 µM.
Compound `Cc1ccc(/C(O)=C/C(=O)C(=O)/C=C(\O)c2ccc(C)cc2C)c(C)c1` gave a TGI of 5.96 µM.
The same measure, in the same setting: the result for `Cc1ccc([C@H]2CC(=O)C[C@H](c3ccc(C)cc3)C23C(=O)c2ccccc2C3=O)cc1` reads greater than 100 µM; that for `O=c1c2ncn(COCCCl)c2n(-c2ccccc2)c(=S)n1-c1ccccc1`, greater than 100 µM; that for `O=C(O)c1ccc(S(=O)(=O)c2ccccc2[N+](=O)[O-])cc1`, greater than 10 µM.
As for `COc1ccc(/C=N/N=C(\N)NO)c(O)c1`, the TGI was greater than 10 µM.
Regarding `COC(=O)C1=CC(=O)OC1(OO)c1ccccc1` (stereo not given), the TGI is greater than 100 µM.
`O=C1NC(N/N=C/C(O)C(O)C(O)CO)=N/C1=C\c1ccco1` (stereo not given) returned a TGI greater than 100 µM.
`COc1cc(CNc2ccc(SC)cc2)cc(OC)c1OC`: the TGI is > 59.7 µM and 45.9 µM.
For the compound `CN(NC(=O)c1cccs1)C1=NCCCN1`, the TGI is greater than 100 µM.
Still for that read-out and setting: the result for `CCCCCC(=O)NC(=S)Nc1nn[nH]n1` reads greater than 100 µM.
With `CC1=NN(c2ccc(S(=O)(=O)O)cc2)C2(C1)SCC(=O)N2c1nc2ccccc2s1` (stereo not given), the TGI is greater than 100 µM.
On to `C[C@H](N)C(=O)Nc1ccc(-c2nc3ccccc3s2)cc1`, for which the TGI was greater than 100 µM.
For `CC(=O)O[C@H]1C#C/C=C\C#CC[C@@H]2C(=O)N[C@@H]12`, the TGI is greater than 50.2 µM.
Same read-out and setting: the figure for `Cc1ccc2c(c1)[nH]c1cc(C(F)(F)F)ccc1[p+]2=O` (stereo not given) is greater than 100 µM.
`CN(O)C(=O)c1cccc(Cl)c1` displayed a TGI greater than 100 µM.
`CCOP(=O)(OCC)c1c(C(=O)OC)cc(=O)[nH]c1-c1ccc(C)cc1` returned a TGI greater than 100 µM.
Compound `COC(=O)C1=C(C(=O)OC)SC2(S1)C1=C(CCCC1)SC(C(=O)OC)=C2C(=O)OC` gave a TGI of 5.3 µM.
Regarding `C1CCC2C(C1)CCCC2NC1=NCCO1` (stereo not given), the TGI is greater than 100 µM.
The compound `CCC1(C)N=C(c2cnccn2)NN1c1ccc(Cl)cc1` (stereo not given) registered a TGI greater than 100 µM.
Regarding `C/C=C/C(O)P1(=O)N(Cc2ccccc2)[C@@H]2CCCC[C@H]2N1Cc1ccccc1` (stereo not given in full), the TGI was greater than 25 µM.

Another experiment has as its system MDA-MB-435. As to the kind of experiment: NCI anticancer screen, dose series, 48 h.
`NC(=O)NNC(=O)c1nc[nH]c1[N+](=O)[O-]`: the TGI was greater than 100 µM.
`O=c1[nH]/c(=C/c2ccc(OCc3ccccc3)cn2)c(=O)[nH]/c1=C/c1ccc(O)cc1` returned a TGI of 1.64 µM.
With `N#C/C(=C\n1ccc(=O)[nH]c1=S)C(N)=O`, the TGI is greater than 100 µM.
The compound `Cc1ccc(/C(O)=C/C(=O)C(=O)/C=C(\O)c2ccc(C)cc2C)c(C)c1` returned a TGI of 3.99 µM.
Compound `Cc1ccc([C@H]2CC(=O)C[C@H](c3ccc(C)cc3)C23C(=O)c2ccccc2C3=O)cc1` displayed a TGI greater than 100 µM.
Compound `O=c1c2ncn(COCCCl)c2n(-c2ccccc2)c(=S)n1-c1ccccc1` showed a TGI greater than 100 µM.
For the compound `O=C(O)c1ccc(S(=O)(=O)c2ccccc2[N+](=O)[O-])cc1`, the TGI is greater than 10 µM.
The compound `COc1ccc(/C=N/N=C(\N)NO)c(O)c1` came in with a TGI of 4.49 µM.
Regarding `COC(=O)C1=CC(=O)OC1(OO)c1ccccc1` (stereo not given), the TGI is greater than 100 µM.
Take `O=C1NC(N/N=C/C(O)C(O)C(O)CO)=N/C1=C\c1ccco1` (stereo not given): the TGI is greater than 100 µM.
Consider `COc1cc(CNc2ccc(SC)cc2)cc(OC)c1OC`, for which the GI50 was 1.67 µM and 0.638 µM; the TGI came out at 80 µM.
Turning to `CN(NC(=O)c1cccs1)C1=NCCCN1`, the TGI is greater than 100 µM.
In the case of `CCCCCC(=O)NC(=S)Nc1nn[nH]n1`, the TGI was greater than 100 µM.
The compound `CC1=NN(c2ccc(S(=O)(=O)O)cc2)C2(C1)SCC(=O)N2c1nc2ccccc2s1` (stereo not given) returned a TGI greater than 100 µM.
The compound `C[C@H](N)C(=O)Nc1ccc(-c2nc3ccccc3s2)cc1` registered a TGI of 30.7 µM.
For the compound `CC(=O)O[C@H]1C#C/C=C\C#CC[C@@H]2C(=O)N[C@@H]12`, the TGI was greater than 100 µM.
For `Cc1ccc2c(c1)[nH]c1cc(C(F)(F)F)ccc1[p+]2=O` (stereo not given), the TGI was greater than 100 µM.
